According to ChEMBL document CHEMBL1201862, “PubChem BioAssay data set” (2004):
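Protocol summary: plate cells (96-well), add compound at 5 concentrations, incubate 48 h, interpolate endpoints linearly. GI50 marks 50% less growth.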 Active and inactive are the calls of the source. No stated cut-off is given here; in the data, active = GI50 up to about 1.1 µM and inactive = higher.

What was measured:
Test in all cases: NCI tumour cell line growth inhibition, 48 h
HCT-116 = tested on: HCT-116
Hs-578T = tested on: Hs-578T
MCF7 = tested on: MCF7
MDA-MB-435 = tested on: MDA-MB-435
Malme-3M = tested on: Malme-3M
NCI-H23 = tested on: NCI-H23
NCI-H522 = tested on: NCI-H522
OVCAR-3 = tested on: OVCAR-3
OVCAR-5 = tested on: OVCAR-5
OVCAR-8 = tested on: OVCAR-8
SF-268 = tested on: SF-268
SF-295 = tested on: SF-295
SK-MEL-28 = tested on: SK-MEL-28
SK-MEL-2 = tested on: SK-MEL-2
SK-MEL-5 = tested on: SK-MEL-5
SK-OV-3 = tested on: SK-OV-3
SR = tested on: SR
SW-620 = tested on: SW-620
TK-10 = tested on: TK-10
UO-31 = tested on: UO-31

SMILES	GI50 (HCT-116)	GI50 (Hs-578T)	GI50 (MCF7)	GI50 (MDA-MB-435)	GI50 (Malme-3M)	GI50 (NCI-H23)	GI50 (NCI-H522)	GI50 (OVCAR-3)	GI50 (OVCAR-5)	GI50 (OVCAR-8)	GI50 (SF-268)	GI50 (SF-295)	GI50 (SK-MEL-28)	GI50 (SK-MEL-2)	GI50 (SK-MEL-5)	GI50 (SK-OV-3)	GI50 (SR)	GI50 (SW-620)	GI50 (TK-10)	GI50 (UO-31)
CCOc1ccc(NC(=O)C(=O)C(/C(=N/N)C(=O)OC)c2nc3ccc([N+](=O)[O-])cc3nc2O)cc1 (stereo not given)	> 100 µM (inactive)	> 100 µM (inactive)	> 100 µM (inactive)	> 100 µM (inactive)	> 100 µM (inactive)	> 100 µM (inactive)	> 100 µM (inactive)	> 100 µM (inactive)	> 100 µM (inactive)	> 100 µM (inactive)	> 100 µM (inactive)	> 100 µM (inactive)	> 100 µM (inactive)	> 100 µM (inactive)	> 100 µM (inactive)	> 100 µM (inactive)	70 µM (inactive)	> 100 µM (inactive)	> 100 µM (inactive)	> 100 µM (inactive)
Cc1ccc(C2NC(=O)c3ccccc3N2)c(C)c1 (stereo not given)	2.39 µM (inactive)	2.4 µM (inactive)	1.07 µM (active)	0.191 µM (active)	1.69 µM (inactive)	7.14 µM (inactive)	1.88 µM (inactive)	1.16 µM (inactive)	8.43 µM (inactive)	5.28 µM (inactive)	10.2 µM (inactive)	2.15 µM (inactive)	6.58 µM (inactive)	1.77 µM (inactive)	0.951 µM (active)	2.22 µM (inactive)	0.807 µM (active)	1.05 µM (active)	7.33 µM (inactive)	6.81 µM (inactive)
COc1cc(-c2coc3c(OC)c(OC4OC(CO)C(O)C(O)C4O)c(OC)cc3c2=O)cc(OC)c1C (stereo not given)	1.69 µM (inactive)	4.17 µM (inactive)	3.66 µM (inactive)	3.85 µM (inactive)	15.3 µM (inactive)	3.98 µM (inactive)	3.36 µM (inactive)	7.26 µM (inactive)	14.2 µM (inactive)	3.38 µM (inactive)	4.84 µM (inactive)	11.7 µM (inactive)	4.8 µM (inactive)	16.1 µM (inactive)	12.1 µM (inactive)	7.96 µM (inactive)	4.35 µM (inactive)	6.1 µM (inactive)	18.4 µM (inactive)	4.42 µM (inactive)
O=C1OC(C2Cc3ccccc3C2=O)c2ccccc21 (stereo not given)	> 100 µM (inactive)	> 100 µM (inactive)	> 100 µM (inactive)	> 100 µM (inactive)	> 100 µM (inactive)	> 100 µM (inactive)	> 100 µM (inactive)	> 100 µM (inactive)	> 100 µM (inactive)	> 100 µM (inactive)	> 100 µM (inactive)	> 100 µM (inactive)	> 100 µM (inactive)	> 100 µM (inactive)	> 100 µM (inactive)	> 100 µM (inactive)	> 100 µM (inactive)	> 100 µM (inactive)	> 100 µM (inactive)	> 100 µM (inactive)
O=C1NCC2(CCN(Cc3ccccc3)CC2)N1	> 100 µM (inactive)	> 100 µM (inactive)	> 100 µM (inactive)	> 100 µM (inactive)	> 100 µM (inactive)	> 100 µM (inactive)	> 100 µM (inactive)	> 100 µM (inactive)	> 100 µM (inactive)	> 100 µM (inactive)	> 100 µM (inactive)	> 100 µM (inactive)	> 100 µM (inactive)	> 100 µM (inactive)	> 100 µM (inactive)	> 100 µM (inactive)	> 100 µM (inactive)	> 100 µM (inactive)	> 100 µM (inactive)	> 100 µM (inactive)
Cc1cnc(/C=N\NC(N)=S)c2cccc(N)c12	0.724 µM (active)	> 100 µM (inactive)	0.526 µM (active)	1.48 µM (inactive)	1.62 µM (inactive)	0.334 µM (active)	0.871 µM (active)	0.426 µM (active)	5.46 µM (inactive)	0.838 µM (active)	0.565 µM (active)	1.97 µM (inactive)	3.27 µM (inactive)	2.1 µM (inactive)	2.04 µM (inactive)	2.59 µM (inactive)	0.314 µM (active)	3.01 µM (inactive)	5.78 µM (inactive)	0.52 µM (active)
CN(CCNC(=S)c1cn(C)c2c1ccc1ccccc12)CCNC(=S)c1cn(C)c2c1ccc1ccccc12	24.4 µM (inactive)	69.2 µM (inactive)	33.5 µM (inactive)	96.8 µM (inactive)	> 100 µM (inactive)	48 µM (inactive)	51.2 µM (inactive)	> 100 µM (inactive)	> 100 µM (inactive)	> 100 µM (inactive)	74 µM (inactive)	99.3 µM (inactive)	64.4 µM (inactive)	> 100 µM (inactive)	> 100 µM (inactive)	> 100 µM (inactive)	49.5 µM (inactive)	> 100 µM (inactive)	> 100 µM (inactive)	32.1 µM (inactive)
N#Cc1ccc(NC(=O)C(CC(=O)OCc2ccccc2)NC(=O)OCc2ccccc2)cc1 (stereo not given)	> 10 µM (inactive)	> 10 µM (inactive)	> 10 µM (inactive)	> 10 µM (inactive)	5.74 µM (inactive)	> 10 µM (inactive)	> 10 µM (inactive)	> 10 µM (inactive)	> 10 µM (inactive)	> 10 µM (inactive)	> 10 µM (inactive)	> 10 µM (inactive)	> 10 µM (inactive)	> 100 µM (inactive)	92 µM (inactive)	> 10 µM (inactive)	> 10 µM (inactive)	> 10 µM (inactive)	> 10 µM (inactive)	> 10 µM (inactive)
Nc1n[nH]c2nc3ccccc3nc12 [QUINOXALINE1]	31 µM (inactive)	39 µM (inactive)	61.2 µM (inactive)	> 100 µM (inactive)	> 100 µM (inactive)	> 100 µM (inactive)	44.1 µM (inactive)	62.4 µM (inactive)	38 µM (inactive)	> 100 µM (inactive)	66.4 µM (inactive)	> 100 µM (inactive)	> 100 µM (inactive)	> 100 µM (inactive)	> 100 µM (inactive)	> 100 µM (inactive)	20 µM (inactive)	86.7 µM (inactive)	70.1 µM (inactive)	39.6 µM (inactive)
